Source: publication PMC9014845 (Clinical cancer research : an official journal of the …, 2019)
“Also recorded” adds a separate entry of the source.

Tested on: patients with advanced solid tumors harboring FGFR1–3 gene alterations
Assay: Phase I dose-escalation: safety/tolerability
Type: in vivo, human
Settings: for Any TEAE / Any TEAE leading to discontinuation / Any TEAE leading to dose reduction / Any TEAE leading to treatment interruption / Serious TEAE / TEAE: ALT increased / TEAE: AST increased / TEAE: Abdominal pain / TEAE: Alopecia / TEAE: Anemia / TEAE: Back pain / TEAE: Blurred vision / TEAE: Constipation / TEAE: Creatinine increased (in blood) / TEAE: Decreased appetite / TEAE: Diarrhea / TEAE: Dry eye / TEAE: Dry mouth / TEAE: Dry skin / TEAE: Dysgeusia / TEAE: Dyspnea / TEAE: Edema peripheral / TEAE: Fatigue / TEAE: Hyperphosphatemia / TEAE: Hypertension / TEAE: Hypokalemia / TEAE: Hypomagnesemia / TEAE: Mucosal inflammation / TEAE: Myalgia / TEAE: Nail changes / TEAE: Nausea / TEAE: Stomatitis / TEAE: Vomiting: all grades

Debio 1347
DLT observed (60 mg): grade-2 dry mouth and eyes
Any TEAE (60 mg (n=10)): 10 (100) Number (%) of patients
Any TEAE leading to discontinuation (60 mg (n=10)): 1 (10) Number (%) of patients
Any TEAE leading to dose reduction (60 mg (n=10)): 2 (20) Number (%) of patients
Any TEAE leading to treatment interruption (60 mg (n=10)): 6 (60) Number (%) of patients
Serious TEAE (60 mg (n=10)): 2 (20) Number (%) of patients
TEAE: ALT increased (60 mg (n=10)): 1 (10) Number (%) of patients
TEAE: AST increased (60 mg (n=10)): 2 (20) Number (%) of patients
TEAE: Abdominal pain (60 mg (n=10)): 3 (30) Number (%) of patients
TEAE: Alopecia (60 mg (n=10)): 1 (10) Number (%) of patients
TEAE: Anemia (60 mg (n=10)): 4 (40) Number (%) of patients
TEAE: Back pain (60 mg (n=10)): 0 Number (%) of patients
TEAE: Blurred vision (60 mg (n=10)): 1 (10) Number (%) of patients
TEAE: Constipation (60 mg (n=10)): 2 (20) Number (%) of patients
TEAE: Creatinine increased (in blood) (60 mg (n=10)): 2 (20) Number (%) of patients
TEAE: Decreased appetite (60 mg (n=10)): 3 (30) Number (%) of patients
TEAE: Diarrhea (60 mg (n=10)): 7 (70) Number (%) of patients
TEAE: Dry eye (60 mg (n=10)): 2 (20) Number (%) of patients
TEAE: Dry mouth (60 mg (n=10)): 4 (40) Number (%) of patients
TEAE: Dry skin (60 mg (n=10)): 0 Number (%) of patients
TEAE: Dysgeusia (60 mg (n=10)): 1 (10) Number (%) of patients
TEAE: Dyspnea (60 mg (n=10)): 3 (30) Number (%) of patients
TEAE: Edema peripheral (60 mg (n=10)): 1 (10) Number (%) of patients
TEAE: Fatigue (60 mg (n=10)): 5 (50) Number (%) of patients
TEAE: Hyperphosphatemia (60 mg (n=10)): 9 (90) Number (%) of patients
TEAE: Hypertension (60 mg (n=10)): 1 (10) Number (%) of patients
TEAE: Hypokalemia (60 mg (n=10)): 0 Number (%) of patients
TEAE: Hypomagnesemia (60 mg (n=10)): 2 (20) Number (%) of patients
TEAE: Mucosal inflammation (60 mg (n=10)): 1 (10) Number (%) of patients
TEAE: Myalgia (60 mg (n=10)): 1 (10) Number (%) of patients
TEAE: Nail changes (60 mg (n=10)): 2 (20) Number (%) of patients
TEAE: Nausea (60 mg (n=10)): 3 (30) Number (%) of patients
TEAE: Stomatitis (60 mg (n=10)): 1 (10) Number (%) of patients
TEAE: Vomiting (60 mg (n=10)): 2 (20) Number (%) of patients
DLT observed (80 mg): hyperamylasemia; also recorded: grade-3 asymptomatic hypercalcemia
Any TEAE (80 mg (n=10)): 10(100%) Number (%) of patients
Any TEAE leading to discontinuation (80 mg (n=10)): 3 (30) Number (%) of patients
Any TEAE leading to dose reduction (80 mg (n=10)): 2 (20) Number (%) of patients
Any TEAE leading to treatment interruption (80 mg (n=10)): 5 (50) Number (%) of patients
Serious TEAE (80 mg (n=10)): 3 (30) Number (%) of patients
TEAE: ALT increased (80 mg (n=10)): 1 (10) Number (%) of patients
TEAE: AST increased (80 mg (n=10)): 1 (10) Number (%) of patients
TEAE: Abdominal pain (80 mg (n=10)): 3 (30) Number (%) of patients
TEAE: Alopecia (80 mg (n=10)): 1 (10) Number (%) of patients
TEAE: Anemia (80 mg (n=10)): 2 (20) Number (%) of patients
TEAE: Back pain (80 mg (n=10)): 0 Number (%) of patients
TEAE: Blurred vision (80 mg (n=10)): 2 (20) Number (%) of patients
TEAE: Constipation (80 mg (n=10)): 3 (30) Number (%) of patients
TEAE: Creatinine increased (in blood) (80 mg (n=10)): 2 (20) Number (%) of patients
TEAE: Decreased appetite (80 mg (n=10)): 5 (50) Number (%) of patients
TEAE: Diarrhea (80 mg (n=10)): 5 (50) Number (%) of patients
TEAE: Dry eye (80 mg (n=10)): 0 Number (%) of patients
TEAE: Dry mouth (80 mg (n=10)): 5 (50) Number (%) of patients
TEAE: Dry skin (80 mg (n=10)): 2 (20) Number (%) of patients
TEAE: Dysgeusia (80 mg (n=10)): 2 (20) Number (%) of patients
TEAE: Dyspnea (80 mg (n=10)): 1 (10) Number (%) of patients
TEAE: Edema peripheral (80 mg (n=10)): 2 (20) Number (%) of patients
TEAE: Fatigue (80 mg (n=10)): 5 (50) Number (%) of patients
TEAE: Hyperphosphatemia (80 mg (n=10)): 9 (90) Number (%) of patients
TEAE: Hypertension (80 mg (n=10)): 0 Number (%) of patients
TEAE: Hypokalemia (80 mg (n=10)): 2 (20) Number (%) of patients
TEAE: Hypomagnesemia (80 mg (n=10)): 1 (10) Number (%) of patients
TEAE: Mucosal inflammation (80 mg (n=10)): 3 (30) Number (%) of patients
TEAE: Myalgia (80 mg (n=10)): 3 (30) Number (%) of patients
TEAE: Nail changes (80 mg (n=10)): 3 (30) Number (%) of patients
TEAE: Nausea (80 mg (n=10)): 3 (30) Number (%) of patients
TEAE: Stomatitis (80 mg (n=10)): 3 (30) Number (%) of patients
TEAE: Vomiting (80 mg (n=10)): 1 (10) Number (%) of patients
DLT observed (110 mg): stomatitis; also recorded: grade-3 bilirubin increase and hyper-phosphatemia
Any TEAE (110 mg (n=9)): 9 (100%) Number (%) of patients
Any TEAE leading to discontinuation (110 mg (n=9)): 1 (11) Number (%) of patients
Any TEAE leading to dose reduction (110 mg (n=9)): 7 (78) Number (%) of patients
Any TEAE leading to treatment interruption (110 mg (n=9)): 8 (89) Number (%) of patients
Serious TEAE (110 mg (n=9)): 4 (44) Number (%) of patients
TEAE: ALT increased (110 mg (n=9)): 1 (11) Number (%) of patients
TEAE: AST increased (110 mg (n=9)): 1 (11) Number (%) of patients
TEAE: Abdominal pain (110 mg (n=9)): 2 (22) Number (%) of patients
TEAE: Alopecia (110 mg (n=9)): 4 (44) Number (%) of patients
TEAE: Anemia (110 mg (n=9)): 3 (33) Number (%) of patients
TEAE: Back pain (110 mg (n=9)): 1 (11) Number (%) of patients
TEAE: Blurred vision (110 mg (n=9)): 2 (22) Number (%) of patients
TEAE: Constipation (110 mg (n=9)): 3 (33) Number (%) of patients
TEAE: Creatinine increased (in blood) (110 mg (n=9)): 0 Number (%) of patients
TEAE: Decreased appetite (110 mg (n=9)): 3 (33) Number (%) of patients
TEAE: Diarrhea (110 mg (n=9)): 3 (33) Number (%) of patients
TEAE: Dry eye (110 mg (n=9)): 4 (44) Number (%) of patients
TEAE: Dry mouth (110 mg (n=9)): 4 (44) Number (%) of patients
TEAE: Dry skin (110 mg (n=9)): 5 (55) Number (%) of patients
TEAE: Dysgeusia (110 mg (n=9)): 4 (44) Number (%) of patients
TEAE: Dyspnea (110 mg (n=9)): 3 (33) Number (%) of patients
TEAE: Edema peripheral (110 mg (n=9)): 2 (22) Number (%) of patients
TEAE: Fatigue (110 mg (n=9)): 5 (55) Number (%) of patients
TEAE: Hyperphosphatemia (110 mg (n=9)): 9 (100) Number (%) of patients
TEAE: Hypertension (110 mg (n=9)): 0 Number (%) of patients
TEAE: Hypokalemia (110 mg (n=9)): 1 (11) Number (%) of patients
TEAE: Hypomagnesemia (110 mg (n=9)): 0 Number (%) of patients
TEAE: Mucosal inflammation (110 mg (n=9)): 2 (22) Number (%) of patients
TEAE: Myalgia (110 mg (n=9)): 3 (33) Number (%) of patients
TEAE: Nausea (110 mg (n=9)): 6 (67) Number (%) of patients
TEAE: Stomatitis (110 mg (n=9)): 7 (78) Number (%) of patients
TEAE: Vomiting (110 mg (n=9)): 3 (33) Number (%) of patients
Any TEAE (150 mg (n=3)): 3 (100%) Number (%) of patients
Any TEAE leading to discontinuation (150 mg (n=3)): 0 (0) Number (%) of patients
Any TEAE leading to treatment interruption (150 mg (n=3)): 3 (100) Number (%) of patients
Serious TEAE (150 mg (n=3)): 2 (67) Number (%) of patients
TEAE: ALT increased (150 mg (n=3)): 0 Number (%) of patients
TEAE: AST increased (150 mg (n=3)): 0 Number (%) of patients
TEAE: Abdominal pain (150 mg (n=3)): 1 (33) Number (%) of patients
TEAE: Alopecia (150 mg (n=3)): 2 (67) Number (%) of patients
TEAE: Anemia (150 mg (n=3)): 0 Number (%) of patients
